Results on two molecules are retold here after patent US6360743B1, “System for dispensing pharmaceutical active compounds” (AB Astra, priority 1992, dated 2002).

Data set [1] can be described thus: Absolute systemic availability and lung deposition of inhaled budesonide (plasma LC-MS). The data set is classed as in vivo, healthy subjects. The conditions noted are these: for Cmax / Tmax: human, plasma, inhaled or intranasal, 1 mg, 1 mg inhaled; for absolute systemic availability (geometric mean): 1 mg as five inhalations of 200 micrograms, vs 0.5 mg intravenously; for amount deposited and absorbed in the lung (geometric mean, range): calculated assuming 13% availability of swallowed budesonide. As for the experimental part: In order to determine the absolute systemic availability and the amount of budesonide deposited and absorbed in the lung after inhalation via TURBUHALER and via an MDI, 24 healthy subjects were given budesonide 1 mg as five inhalations of 200 micrograms each, via TURBUHALER inhaler or via MDI, and 0.5 mg intravenously, on separate study days. Budesonide levels were determined in plasma by a LC-MS method. The amount of budesonide absorbed in the lung was calculated on the assumption of an availability of swallowed budesonide of 13%. Furthermore, absorption in the lung was calculated in 13 of the subjects after inhalation with concomitant oral dosing of charcoal to prevent absorption of budesonide from the gastrointestinal track. There was good conformity between the two modes of calculation.

For data set [2] the following is noted: generally regarded; cited from earlier work.

What is called Cmax is the peak of the concentration-time curve. As usually defined, the Tmax is the time from dosing to the highest level.

For `CCCC1O[C@@H]2C[C@H]3[C@@H]4CCC5=CC(=O)C=C[C@]5(C)[C@H]4[C@@H](O)C[C@]3(C)[C@]2(C(=O)CO)O1` (stereo partly shown) [budesonide], the “lung deposition from TURBUHALER relative to MDI” value in data set [1] (TURBUHALER versus MDI) is given as “twice that from an MDI”. In data set [1] (via MDI), the highest level (Cmax) was 2.3 nM; the Tmax was found to be 30 min; the “absolute systemic availability (geometric mean)” value is on record as 28%; the “amount deposited and absorbed in the lung (geometric mean, range)” value is 15% (3%-47%). Further, in data set [1] (via TURBUHALER), the Cmax is 3.6 nM; the Tmax was determined as 18 min; the “absolute systemic availability (geometric mean)” value is 38%; the “amount deposited and absorbed in the lung (geometric mean, range)” value was 32% (16%-59%).

Regarding `CC(C)(C)NCC(O)c1ccc(O)c(CO)c1` (stereo not shown) [salbutamol], the “dose regarded as equipotent to 0.25 mg of terbutaline sulphate” value in data set [2] is 0.1 mg.
